Measurements taken from the NIST ThermoML archive (doi:10.1016/j.tca.2015.06.017).
± gives the expanded uncertainty stated by the source.

Assay: xn = mol fraction of the nth substance listed
Settings: Liquid, Vibrating tube method

CC(C)(C)Cl [2-chloro-2-methylpropane] + CCCCCCC
mass density [kg/m3]
Settings | 293.15 K | 298.15 K
100 kPa, x2 = 0.0554 | – | 824.75 ± 0.24
100 kPa, x2 = 0.1017 | – | 814.99 ± 0.24
100 kPa, x2 = 0.2004 | – | 795.33 ± 0.24
100 kPa, x2 = 0.3016 | – | 776.67 ± 0.24
100 kPa, x2 = 0.4097 | – | 758.26 ± 0.24
100 kPa, x2 = 0.498 | – | 744.32 ± 0.24
100 kPa, x2 = 0.5983 | – | 729.58 ± 0.25
100 kPa, x2 = 0.7017 | – | 715.49 ± 0.25
100 kPa, x2 = 0.7995 | – | 703.09 ± 0.25
100 kPa, x2 = 0.9032 | – | 690.79 ± 0.25
100 kPa, x2 = 0.9482 | – | 685.68 ± 0.25
2000 kPa, x2 = 0.0554 | – | 827.29 ± 0.25
2000 kPa, x2 = 0.1017 | – | 817.46 ± 0.25
2000 kPa, x2 = 0.2004 | – | 797.78 ± 0.25
2000 kPa, x2 = 0.3016 | – | 778.97 ± 0.26
2000 kPa, x2 = 0.4097 | – | 760.5 ± 0.26
2000 kPa, x2 = 0.498 | – | 746.66 ± 0.26
2000 kPa, x2 = 0.5983 | – | 731.77 ± 0.26
2000 kPa, x2 = 0.7017 | – | 717.66 ± 0.27
2000 kPa, x2 = 0.7995 | – | 705.19 ± 0.27
2000 kPa, x2 = 0.9032 | – | 692.86 ± 0.27
2000 kPa, x2 = 0.9482 | – | 687.76 ± 0.27
5000 kPa, x2 = 0.0554 | – | 831.22 ± 0.27
5000 kPa, x2 = 0.1017 | – | 821.35 ± 0.27
5000 kPa, x2 = 0.2004 | – | 801.38 ± 0.28
5000 kPa, x2 = 0.3016 | – | 782.63 ± 0.28
5000 kPa, x2 = 0.4097 | – | 763.93 ± 0.29
5000 kPa, x2 = 0.498 | – | 749.94 ± 0.29
5000 kPa, x2 = 0.5983 | – | 734.95 ± 0.29
5000 kPa, x2 = 0.7017 | – | 720.69 ± 0.3
5000 kPa, x2 = 0.7995 | – | 708.17 ± 0.3
5000 kPa, x2 = 0.9032 | – | 695.72 ± 0.3
5000 kPa, x2 = 0.9482 | – | 690.58 ± 0.31
7000 kPa, x2 = 0.0554 | – | 833.69 ± 0.28
7000 kPa, x2 = 0.1017 | – | 823.79 ± 0.29
7000 kPa, x2 = 0.2004 | – | 803.89 ± 0.29
7000 kPa, x2 = 0.3016 | – | 784.93 ± 0.3
7000 kPa, x2 = 0.4097 | – | 766.14 ± 0.3
7000 kPa, x2 = 0.498 | – | 752.1 ± 0.31
7000 kPa, x2 = 0.5983 | – | 737.06 ± 0.31
7000 kPa, x2 = 0.7017 | – | 722.75 ± 0.32
7000 kPa, x2 = 0.7995 | – | 710.2 ± 0.32
7000 kPa, x2 = 0.9032 | – | 697.64 ± 0.33
7000 kPa, x2 = 0.9482 | – | 692.49 ± 0.33
10000 kPa, x2 = 0.0554 | – | 837.41 ± 0.3
10000 kPa, x2 = 0.1017 | – | 827.3 ± 0.3
10000 kPa, x2 = 0.2004 | – | 807.34 ± 0.31
10000 kPa, x2 = 0.3016 | – | 788.26 ± 0.32
10000 kPa, x2 = 0.4097 | – | 769.41 ± 0.33
10000 kPa, x2 = 0.498 | – | 755.22 ± 0.34
10000 kPa, x2 = 0.5983 | – | 740.1 ± 0.34
10000 kPa, x2 = 0.7017 | – | 725.72 ± 0.35
10000 kPa, x2 = 0.7995 | – | 712.96 ± 0.36
10000 kPa, x2 = 0.9032 | – | 700.3 ± 0.36
10000 kPa, x2 = 0.9482 | – | 695.09 ± 0.36
20000 kPa, x2 = 0.0554 | – | 848.71 ± 0.35
20000 kPa, x2 = 0.1017 | – | 838.45 ± 0.36
20000 kPa, x2 = 0.2004 | – | 818.1 ± 0.38
20000 kPa, x2 = 0.3016 | – | 798.58 ± 0.39
20000 kPa, x2 = 0.4097 | – | 779.66 ± 0.41
20000 kPa, x2 = 0.498 | 769.27 ± 0.42 | 765.11 ± 0.42
20000 kPa, x2 = 0.5983 | 753.74 ± 0.43 | 749.57 ± 0.43
20000 kPa, x2 = 0.7017 | 738.84 ± 0.44 | 734.93 ± 0.45
20000 kPa, x2 = 0.7995 | 725.88 ± 0.45 | 721.79 ± 0.46
20000 kPa, x2 = 0.9032 | 712.92 ± 0.47 | 708.9 ± 0.47
20000 kPa, x2 = 0.9482 | 707.57 ± 0.47 | 703.58 ± 0.47
30000 kPa, x2 = 0.0554 | 863.54 ± 0.39 | 858.8 ± 0.4
30000 kPa, x2 = 0.1017 | 853.13 ± 0.41 | 848.35 ± 0.41
30000 kPa, x2 = 0.2004 | 832.13 ± 0.43 | 827.76 ± 0.44
30000 kPa, x2 = 0.3016 | 812.29 ± 0.45 | 807.95 ± 0.46
30000 kPa, x2 = 0.4097 | 792.63 ± 0.48 | 788.48 ± 0.48
30000 kPa, x2 = 0.498 | 777.78 ± 0.5 | 773.73 ± 0.5
30000 kPa, x2 = 0.5983 | 762.02 ± 0.52 | 758.07 ± 0.52
30000 kPa, x2 = 0.7017 | 746.9 ± 0.53 | 743.08 ± 0.54
30000 kPa, x2 = 0.7995 | 733.66 ± 0.55 | 729.79 ± 0.56
30000 kPa, x2 = 0.9032 | 720.51 ± 0.57 | 716.58 ± 0.57
30000 kPa, x2 = 0.9482 | 715.09 ± 0.57 | 711.27 ± 0.58
40000 kPa, x2 = 0.0554 | 872.42 ± 0.43 | 867.89 ± 0.44
40000 kPa, x2 = 0.1017 | 862.05 ± 0.45 | 857.39 ± 0.45
40000 kPa, x2 = 0.2004 | 840.65 ± 0.48 | 836.44 ± 0.49
40000 kPa, x2 = 0.3016 | 820.63 ± 0.51 | 816.41 ± 0.52
40000 kPa, x2 = 0.4097 | 800.54 ± 0.55 | 796.66 ± 0.55
40000 kPa, x2 = 0.498 | 785.54 ± 0.57 | 781.69 ± 0.58
40000 kPa, x2 = 0.5983 | 769.5 ± 0.6 | 765.72 ± 0.6
40000 kPa, x2 = 0.7017 | 754.19 ± 0.62 | 750.52 ± 0.63
40000 kPa, x2 = 0.7995 | 740.77 ± 0.64 | 737.07 ± 0.65
40000 kPa, x2 = 0.9032 | 727.37 ± 0.66 | 723.74 ± 0.67
40000 kPa, x2 = 0.9482 | 721.88 ± 0.67 | 718.29 ± 0.68
50000 kPa, x2 = 0.0554 | 880.62 ± 0.46 | 876.38 ± 0.47
50000 kPa, x2 = 0.1017 | 870 ± 0.49 | 865.68 ± 0.49
50000 kPa, x2 = 0.2004 | 848.46 ± 0.53 | 844.44 ± 0.54
50000 kPa, x2 = 0.3016 | 828.17 ± 0.57 | 824.32 ± 0.58
50000 kPa, x2 = 0.4097 | 807.96 ± 0.61 | 804.27 ± 0.61
50000 kPa, x2 = 0.498 | 792.71 ± 0.64 | 789.1 ± 0.65
50000 kPa, x2 = 0.5983 | 776.5 ± 0.67 | 772.96 ± 0.68
50000 kPa, x2 = 0.7017 | 761.01 ± 0.7 | 757.53 ± 0.71
50000 kPa, x2 = 0.7995 | 747.33 ± 0.73 | 743.9 ± 0.74
50000 kPa, x2 = 0.9032 | 733.84 ± 0.76 | 730.37 ± 0.76
50000 kPa, x2 = 0.9482 | 728.3 ± 0.77 | 724.81 ± 0.77
60000 kPa, x2 = 0.0554 | 888.24 ± 0.49 | 884.1 ± 0.5
60000 kPa, x2 = 0.1017 | 877.59 ± 0.52 | 873.27 ± 0.53
60000 kPa, x2 = 0.2004 | 855.9 ± 0.57 | 852 ± 0.58
60000 kPa, x2 = 0.3016 | 835.3 ± 0.62 | 831.63 ± 0.63
60000 kPa, x2 = 0.4097 | 814.87 ± 0.67 | 811.3 ± 0.67
60000 kPa, x2 = 0.498 | 799.57 ± 0.7 | 796.01 ± 0.71
60000 kPa, x2 = 0.5983 | 783.15 ± 0.74 | 779.73 ± 0.75
60000 kPa, x2 = 0.7017 | 767.47 ± 0.78 | 764.12 ± 0.79
60000 kPa, x2 = 0.7995 | 753.62 ± 0.81 | 750.3 ± 0.82
60000 kPa, x2 = 0.9032 | 739.97 ± 0.84 | 736.68 ± 0.85
60000 kPa, x2 = 0.9482 | 734.33 ± 0.86 | 731.11 ± 0.87
65000 kPa, x2 = 0.0554 | 891.92 ± 0.5 | 887.83 ± 0.52
65000 kPa, x2 = 0.1017 | 881.11 ± 0.53 | 877.03 ± 0.54
65000 kPa, x2 = 0.2004 | 859.41 ± 0.59 | 855.63 ± 0.6
65000 kPa, x2 = 0.3016 | 838.73 ± 0.64 | 834.93 ± 0.65
65000 kPa, x2 = 0.4097 | 818.27 ± 0.69 | 814.66 ± 0.7
65000 kPa, x2 = 0.498 | 802.79 ± 0.73 | 799.35 ± 0.74
65000 kPa, x2 = 0.5983 | 786.25 ± 0.77 | 782.96 ± 0.78
65000 kPa, x2 = 0.7017 | 770.47 ± 0.82 | 767.16 ± 0.82
65000 kPa, x2 = 0.7995 | 756.52 ± 0.85 | 753.28 ± 0.86
65000 kPa, x2 = 0.9032 | 742.75 ± 0.89 | 739.66 ± 0.9
65000 kPa, x2 = 0.9482 | 737.09 ± 0.9 | 734.01 ± 0.91
